For data set [1], the system named is Mus musculus. The data set is described as follows: Toxicity in mouse assessed as weight loss at 200 mg/kg, po qd for 5 to 14 days. In kind it is organism-based. Particulars: in vivo.
Data set [2] concerns Mus musculus. Kind of data set: Toxicity in mouse at 50 to 200 mg/kg, po administered as single dose up to 48 hrs. The data set is classed as organism-based. As to conditions: in vivo.
The nature of data set [3]: Clearance in mouse at 100 mg/kg, po administered as single dose. In kind it is ADME, organism-based. Particulars: in vivo.
The subject of data set [4] is Mus musculus. Kind of data set: Oral bioavailability in mouse at 50 mg/kg administered as single dose. In kind it is ADME, organism-based. Particulars: in vivo.
Data set [5] concerns Mus musculus. The data set is described as follows: Cmax in mouse at 50 to 200 mg/kg, po administered as single dose. The data set is classed as ADME, organism-based. Particulars: in vivo.
Data set [6] deals with Mus musculus. The data set is described as follows: Volume of distribution in mouse at 0.5 to 1.5 mg/kg, iv administered as single dose. The data set is classed as ADME, organism-based. As to conditions: in vivo.
Data set [7] concerns Mus musculus. The data set is described as follows: Toxicity in mouse at 0.5 to 1.5 mg/kg, iv administered as single dose up to 48 hrs. The data set is classed as organism-based. Particulars: in vivo.
A short description of data set [8]: Half life in mouse at 1 mg/kg, iv administered as single dose. The data set is classed as ADME, organism-based. As to conditions: in vivo.
A short description of data set [9]: Half life in mouse liver microsomes at 0.8 uM by LC-MS/MS analysis. The data set is classed as ADME, microsome. (Liver microsomes are a subcellular fraction often used to study metabolism.)
Data set [10] has as its system Mus musculus. Kind of data set: Toxicity in mouse at 200 mg/kg, po bid for 14 days. In kind it is organism-based. Particulars: in vivo, 336 h.
In data set [11] the test system is Mus musculus. The data set is described as follows: AUClast in mouse at 50 to 200 mg/kg, po administered as single dose. Particulars: in vivo. The data set is classed as ADME, organism-based.
A short description of data set [12]: Half life in mouse at 100 mg/kg, po administered as single dose. Particulars: in vivo. The data set is classed as ADME, organism-based.
The nature of data set [13]: Intrinsic clearance in mouse liver microsomes at 0.8 uM by LC-MS/MS analysis. In kind it is ADME, microsome. As to conditions: read-out: CLH.
Data set [14] relates to Mus musculus. Kind of data set: Toxicity in mouse assessed as weight loss at 200 mg/kg, po qd for 3 days. In kind it is organism-based. Particulars: in vivo, 72 h.
The nature of data set [15]: Plasma concentration in mouse at 200 mg/kg, po bid for 14 days measured after 1 hr. The data set is classed as ADME, organism-based.
Data set [16] relates to Mus musculus. The data set is described as follows: Toxicity in mouse at 200 mg/kg, po qd for 14 days. The data set is classed as organism-based. As to conditions: in vivo, 336 h.
A short description of data set [17]: Clearance in mouse at 1 mg/kg, iv administered as single dose. In kind it is ADME, organism-based. Particulars: in vivo.
Data set [18] can be described thus: Plasma concentration in mouse at 200 mg/kg, po administered as singe dose measured after 1 hr. In kind it is ADME, organism-based.
The nature of data set [19]: Plasma concentration in mouse at 200 mg/kg, po qd for 14 days measured after 1 hr. The data set is classed as ADME, organism-based.

SMILES strings stand for the structures.

On to `CCCCN1CCC(N(Cc2ccccc2)C(=O)Nc2ccc(Cl)c(Cl)c2)CC1`, for which the Activity entry in data set [1] is “Non-Toxic”; in [2] it was “Non-Toxic”; in [7] it was “Non-Toxic”; in data set [10] it was “Non-Toxic”; in data set [14] it was 3 to 5%; in [16] it was “Non-Toxic”. The molecule further showed a CL/F in data set [3] of 367 mL/min/kg. Further, in data set [4], the F is 88%. In addition, the Cmax in [5] was 1500 to 3000 nM. Further, in data set [6], the Vd fell in the range of 87.3 to 176 L/kg. In addition, the values for the half-life in data set [8] and in [12] were 3.6 h and 4.2 h, respectively. Moreover, in [9], the half-life at 0.8 µM fell in the range of 2.1 to 2.11 h. The AUClast in [11] lay in the range of 3.4 to 17.1 µM·h. Further, the CLint scaled at 0.8 µM in [13] was 25 to 25.6 mL/min/kg. The results for the concentration at 1 h in data set [15], in [18] and in data set [19] were 3300 nM, 3000 nM and 2400 nM, respectively. The molecule also showed a clearance in data set [17] of 283 mL/min/kg.

The term CL/F denotes clearance divided by bioavailability, as obtained after extravascular dosing. In general, Cmax refers to the maximum level reached in the sampled fluid or tissue. Broadly, the Vd is the apparent volume that relates the amount in the body to the concentration in plasma or blood. As a reminder, the half-life is how long it takes for the measured level to halve. A high value points to slow loss. The term clearance denotes the volume of plasma or blood freed of the substance per unit of time. A low value points to a low capacity for elimination.

Source of the values: ChEMBL document CHEMBL4020847, “Discovery of an Orally Bioavailable Inhibitor of Defective in Cullin Neddylation 1 (DCN1)-Mediated Cullin Neddylation” (J Med Chem, 2018).
